In PubChem BioAssay (NCI):
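How tested: cells in 96-well plates exposed to compound for 48 hours at five concentrations. Abbreviation: GI50, concentration required for 50% inhibition of growth. The concentration for full growth arrest is given as TGI.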

Experiments:
Assay in all cases: growth of human tumour cells (NCI), 48 h; in the data active = GI50 below about 0.43 µM; inactive = the rest
786-0 renal = test system: 786-0 renal
A498 renal = test system: A498 renal
A549 NSCLC = test system: A549 NSCLC
ACHN renal = test system: ACHN renal
BT-549 breast = test system: BT-549 breast
CAKI-1 renal = test system: CAKI-1 renal
CCRF-CEM leukemia = test system: CCRF-CEM leukemia
COLO 205 colon = test system: COLO 205 colon
DU-145 prostate = test system: DU-145 prostate
HCC-2998 colon = test system: HCC-2998 colon
HCT-116 colon = test system: HCT-116 colon
HCT-15 colon = test system: HCT-15 colon
HL-60(TB) leukemia = test system: HL-60(TB) leukemia
HOP-62 NSCLC = test system: HOP-62 NSCLC
HOP-92 NSCLC = test system: HOP-92 NSCLC
HS 578T breast = test system: HS 578T breast
HT29 colon = test system: HT29 colon
IGROV1 ovarian = test system: IGROV1 ovarian
K-562 leukemia = test system: K-562 leukemia
KM12 colon = test system: KM12 colon
LOX IMVI melanoma = test system: LOX IMVI melanoma
M14 melanoma = test system: M14 melanoma
MALME-3M melanoma = test system: MALME-3M melanoma
MCF7 breast = test system: MCF7 breast
MDA-MB-231 breast = test system: MDA-MB-231 breast
MDA-MB-435 = test system: MDA-MB-435
MOLT-4 leukemia = test system: MOLT-4 leukemia
NCI-H226 lung = test system: NCI-H226 lung
NCI-H23 lung = test system: NCI-H23 lung
NCI-H460 lung = test system: NCI-H460 lung
NCI-H522 lung = test system: NCI-H522 lung
NCI/ADR-RES ovarian = test system: NCI/ADR-RES ovarian
OVCAR-3 ovarian = test system: OVCAR-3 ovarian
OVCAR-4 ovarian = test system: OVCAR-4 ovarian
OVCAR-5 ovarian = test system: OVCAR-5 ovarian
OVCAR-8 ovarian = test system: OVCAR-8 ovarian
PC-3 prostate = test system: PC-3 prostate
RPMI-8226 leukemia = test system: RPMI-8226 leukemia
RXF 393 renal = test system: RXF 393 renal
SF-268 CNS = test system: SF-268 CNS
SF-295 CNS = test system: SF-295 CNS
SF-539 CNS = test system: SF-539 CNS
SK-MEL-2 melanoma = test system: SK-MEL-2 melanoma
SK-MEL-28 melanoma = test system: SK-MEL-28 melanoma
SK-MEL-5 melanoma = test system: SK-MEL-5 melanoma
SK-OV-3 ovarian = test system: SK-OV-3 ovarian
SN12C renal = test system: SN12C renal
SNB-19 CNS = test system: SNB-19 CNS
SNB-75 CNS = test system: SNB-75 CNS
SR leukemia = test system: SR leukemia
SW-620 colon = test system: SW-620 colon
T-47D breast = test system: T-47D breast
TK-10 renal = test system: TK-10 renal
U251 CNS = test system: U251 CNS
UACC-257 melanoma = test system: UACC-257 melanoma
UACC-62 melanoma = test system: UACC-62 melanoma
UO-31 renal = test system: UO-31 renal

Nc1c(C(=O)c2cccc(C(O)CO)c2)cnn1-c1ccc(F)cc1 (centres undefined)
inactive: GI50 (786-0 renal) > 25 µM | GI50 (A498 renal) > 25 µM | GI50 (A549 NSCLC) > 25 µM | GI50 (ACHN renal) > 25 µM | GI50 (BT-549 breast) > 25 µM | GI50 (CAKI-1 renal) > 25 µM | GI50 (CCRF-CEM leukemia) > 25 µM | GI50 (COLO 205 colon) > 25 µM | GI50 (DU-145 prostate) > 25 µM | GI50 (HCC-2998 colon) > 25 µM | GI50 (HCT-116 colon) > 25 µM | GI50 (HCT-15 colon) > 25 µM | GI50 (HL-60(TB) leukemia) > 12.9 µM | GI50 (HOP-62 NSCLC) > 25 µM | GI50 (HOP-92 NSCLC) > 25 µM | GI50 (HS 578T breast) > 25 µM | GI50 (HT29 colon) > 25 µM | GI50 (IGROV1 ovarian) > 25 µM | GI50 (K-562 leukemia) > 25 µM | GI50 (KM12 colon) > 25 µM | GI50 (LOX IMVI melanoma) > 25 µM | GI50 (M14 melanoma) > 25 µM | GI50 (MALME-3M melanoma) > 25 µM | GI50 (MCF7 breast) > 25 µM | GI50 (MDA-MB-231 breast) > 25 µM | GI50 (MDA-MB-435) > 25 µM | GI50 (MOLT-4 leukemia) > 25 µM | GI50 (NCI-H226 lung) > 25 µM | GI50 (NCI-H23 lung) > 25 µM | GI50 (NCI-H460 lung) > 25 µM | GI50 (NCI-H522 lung) > 25 µM | GI50 (NCI/ADR-RES ovarian) > 25 µM | GI50 (OVCAR-3 ovarian) > 25 µM | GI50 (OVCAR-4 ovarian) > 25 µM | GI50 (OVCAR-5 ovarian) > 25 µM | GI50 (OVCAR-8 ovarian) > 25 µM | GI50 (PC-3 prostate) > 25 µM | GI50 (RPMI-8226 leukemia) > 25 µM | GI50 (RXF 393 renal) > 25 µM | GI50 (SF-268 CNS) > 25 µM | GI50 (SF-295 CNS) > 25 µM | GI50 (SF-539 CNS) > 25 µM | GI50 (SK-MEL-2 melanoma) > 25 µM | GI50 (SK-MEL-28 melanoma) > 25 µM | GI50 (SK-MEL-5 melanoma) > 25 µM | GI50 (SK-OV-3 ovarian) > 25 µM | GI50 (SN12C renal) > 25 µM | GI50 (SNB-19 CNS) > 25 µM | GI50 (SNB-75 CNS) > 25 µM | GI50 (SR leukemia) > 25 µM | GI50 (SW-620 colon) > 25 µM | GI50 (T-47D breast) > 25 µM | GI50 (TK-10 renal) > 25 µM | GI50 (U251 CNS) > 25 µM | GI50 (UACC-257 melanoma) > 25 µM | GI50 (UACC-62 melanoma) > 25 µM | GI50 (UO-31 renal) > 25 µM
> 25 µM: TGI (786-0 renal) | TGI (A498 renal) | TGI (A549 NSCLC) | TGI (ACHN renal) | TGI (BT-549 breast) | TGI (CAKI-1 renal) | TGI (CCRF-CEM leukemia) | TGI (COLO 205 colon) | TGI (DU-145 prostate) | TGI (HCC-2998 colon) | TGI (HCT-116 colon) | TGI (HCT-15 colon) | TGI (HL-60(TB) leukemia) | TGI (HOP-62 NSCLC) | TGI (HOP-92 NSCLC) | TGI (HS 578T breast) | TGI (HT29 colon) | TGI (IGROV1 ovarian) | TGI (K-562 leukemia) | TGI (KM12 colon) | TGI (LOX IMVI melanoma) | TGI (M14 melanoma) | TGI (MALME-3M melanoma) | TGI (MCF7 breast) | TGI (MDA-MB-231 breast) | TGI (MDA-MB-435) | TGI (MOLT-4 leukemia) | TGI (NCI-H226 lung) | TGI (NCI-H23 lung) | TGI (NCI-H460 lung) | TGI (NCI-H522 lung) | TGI (NCI/ADR-RES ovarian) | TGI (OVCAR-3 ovarian) | TGI (OVCAR-4 ovarian) | TGI (OVCAR-5 ovarian) | TGI (OVCAR-8 ovarian) | TGI (PC-3 prostate) | TGI (RPMI-8226 leukemia) | TGI (RXF 393 renal) | TGI (SF-268 CNS) | TGI (SF-295 CNS) | TGI (SF-539 CNS) | TGI (SK-MEL-2 melanoma) | TGI (SK-MEL-28 melanoma) | TGI (SK-MEL-5 melanoma) | TGI (SK-OV-3 ovarian) | TGI (SN12C renal) | TGI (SNB-19 CNS) | TGI (SNB-75 CNS) | TGI (SR leukemia) | TGI (SW-620 colon) | TGI (T-47D breast) | TGI (TK-10 renal) | TGI (U251 CNS) | TGI (UACC-257 melanoma) | TGI (UACC-62 melanoma) | TGI (UO-31 renal)
